Test results from patent publication US11926580B2, “Hydropersulfide precursors” (THE JOHNS HOPKINS UNIVERSITY, priority 2018, dated 2024).
“And” between values parts separate entries of the source, which are not always exact repeats. Equal values may be shown once.

How the values were obtained:
[1] = test system: cardiomyocyte H9c2 cells; assay: Cytoprotection against hydrogen peroxide-induced cytotoxicity; format: cell-based; settings: pretreatment 2 h (4d 50 μM; phenyl cyanamide 200 μM), then H2O2 200 μM 2 h, CCK-8
Procedure: (§1) FIGS. 6a and 6b provide graphs of (a) the cell viability of cardiomyocyte H9c2 cells following incubation of the RSSH precursor 4d (50 μM) and phenylcynamide (200 μM) for 24 h; and (b) the cytoprotective effects of the RSSH precursor 4d observed following pretreatment of H9c2 cells with either 4d (50 μM) or phenylcynamide (200 μM) for 2 h, followed by hydrogen peroxide (200 μM) treatment for 2 h. Quantification of cell viability was carried out using Cell Counting Kit-8 (CCK-8). Results are expressed as the mean±SEM (n=6).
Since hydropersulfides are reported to mitigate oxidative stress, the ability of RSSH precursor 4d to protect cardiomyocyte H9c2 cells from cytotoxicity induced by hydrogen peroxide (H2O2) was tested.

[2] = Decomposition of precursor at pH 6 and pH 8.5; format: physicochemical
From the text: Based on the clean formation of hydropersulfide and aryl cyanamide during decomposition of 4d-h, the general mechanism shown in Scheme 5 is proposed. Neutralization of S-alkyl-thioisothiourea 7 (or its resonance partner 7a) occurs at pH 7.4 to produce a neutral species 8 and/or 8a, which can further undergo an elimination reaction to produce RSSH and aryl cyanamide. The elimination reaction can be initiated by either donation of the imine-nitrogen lone pair of 8 to form aryl cyanamide and RSSH (Scheme 5, eq. 2) or deprotonation of the arylamino-nitrogen proton to form RSSH and an aryl carbodiimide, which can further undergo tautomerization to afford the aryl cyanamide (Scheme 5, eq. 3). Alternately, an elimination reaction can be initiated by donation of the nitrogen lone pair of intermediate 8a to produce RSSH and aryl carbodiimide (Scheme 5, eq. 1). The decomposition of precursor 4d was examined at pH 6 and pH 8.5. […] In addition, the thermodynamic stability of the aryl cyanamide produced could contribute to the observed rate of RSSH release.

[3] = Kinetics of RSSH generation by 1H NMR with NEM trapping; format: physicochemical; settings: pH 7.4 buffer with 20% MeOD, pH 7.4; read-out: half-life of precursor
[4] = as above; format: physicochemical; settings: 10% D2O
Procedure: FIGS. 3a and 3b provide graphs of (a) Stacked ^1H NMR spectra showing the decomposition of precursor 4d (1 mM) with NEM (20 mM) in 10% D2O, phosphate buffer (PB), pH 7.4 at 37° C. to produce RSS-NEM adduct 5a; Precursor 4d was introduced to a solution of NEM in PB at t=0 min and following equilibration and shimming, the first 1H NMR spectrum was obtained after 6 min.; and (b) The kinetics of decomposition of 4d (circles represent the —CH3 protons (Ha) of the precursor) and formation of 5a (squares represent the diasterotopic protons (Hb) of the succinimide ring of the two product diastereomers).
Next, ^1H NMR spectroscopy was used to monitor the kinetics of RSSH generation from 4d by trapping with NEM in 10% D2O, pH 7.4 buffer containing DMSO as an internal standard at 37° C. An increase in the peak intensity attributed to one of the diasterotopic protons of the succinimide ring of the two product diastereomers (Hb, δ2.99-2.91 ppm) was observed (FIG. 3a). The other diasterotopic proton (Hc, δ3.30-3.21 ppm) overlaps with N-ethylmaleamic acid (NEMA), a product derived from NEM hydrolysis. Similarly, the intensity of two methyl group protons of precursor 4d (δ1.44 and 1.41 ppm) decreased as four methyl group protons of the two diastereomers of 5a (Ha, δ1.40, 1.37 ppm and 1.40, 1.34 ppm) increased, supporting the clean conversion of 4d to 5a. The ^1H NMR peak assignments for 5a are consistent with the RSS-NEM adduct formed during S-methoxycarbonyl penicillamine disulfide (MCPD) decomposition (Scheme 1, eq. 3) in the presence of NEM.
All starting materials were of reagent grade and used without further purification. N-acetyl-D-penicillamine, N-ethylmaleimide, N-ethylmaleamic acid, and phenylcyanamide were purchased from Sigma-Aldrich and used without further purification. Thiourea and N-substituted thioureas were purchased from Alfa Aesar and Oakwood Chemicals. Deuterated solvents (Cambridge Isotope Laboratories) were used for NMR spectroscopic analyses. NMR spectra were obtained on a 400 MHz FT-NMR spectrometer. All chemical shifts are reported in parts per million (ppm) relative to residual CHCl3 (7.26 ppm for ^1H, 77.2 ppm for ^13C), residual H2O (4.79 ppm for ^1H), residual DMSO (2.50 ppm for ^1H, 39.5 for ^13C), or residual MeOH (3.31 ppm for ^1H, 49.2 ppm for ^13C). The kinetics of RSSH generation were measured using a Varian Inova 800 MHz spectrometer. UPLC-MS analysis was carried out with a Waters Acquity/Xevo-G2 UPLC-MS system equipped with an ACQUITY UPLC BEH C18 column (2.1 mm×50 mm, 1.7 μm). The mass signals for products of hydropersulfide trapping with NEM were obtained via deconvolution using MassLynx 4.1 software. The pH measurements were performed using a Fisher Scientific Accumet AB15 pH-meter. Analytical thin layer chromatography (TLC) was performed on Sigma-Aldrich silica gel on TLC A1 foils with fluorescent indicator F254 plates. Visualization was accomplished with UV light (254 nm) or staining with KMnO4. Flash column chromatography was performed using SiliaFlash P60 (230-400 mesh) silica gel. Melting points were recorded using MEL-TEMP® capillary melting point apparatus and are uncorrected.

[5] = test system: cardiomyocyte H9c2 cells; assay: Cytotoxicity / cell viability assay with Cell Counting Kit-8; format: cell-based; settings: 50 μM, 24 h, CCK-8
Procedure: as §1
The cytotoxicity and impact on cell viability of the hydropersulfide (RSSH) precursor 4d have been examined using the cardiomyocyte H9C2 cell line and Cell Counting Kit-8 (CCK-8). A cell viability assay reveled that 4d was not cytotoxic at 50 μM ([…]).

## CC(=O)NC(C(=O)O)C(C)(C)SSC(=N)Nc1ccccc1.Cl (stereo not shown) [Precursor 4d, ((1-acetamido-1-carboxy-2-methylpropan-2-yl)disulfaneyl)(phenylamino)methaniminium chloride]
[1]
  cytoprotection from H2O2-induced cytotoxicity: significant cytoprotection
other
  melting point: 155 to 157 °C
[2]; pH 6 (lower pH)
  decomposition rate: substantially slowed
[2]; pH 8.5 (higher pH)
  decomposition rate: increased
[3]
  half-life: 4.3 min
[4]; 4d 1 mM, NEM 20 mM, phosphate buffer pH 7.4, 37° C.
  k, single-exponential fit of precursor decomposition and 5a formation: 0.12 min⁻¹
[4]; NEM, pH 7.4 buffer, 37° C., read-out: half-life of precursor
  half-life at 1 mM: 5.6 min
[4]; precursor 1 mM, NEM 20 mM, pH 7.4 phosphate buffer, 37° C.
  t1//2 (mm): 5.6 ± 0.3 min
[4]; precursor 1 mM, NEM 20 mM, pH 7.4 phosphate buffer, 37° C., based upon % precursor consumed
  Hydropersulfide Yield (%) (RSS-NEM adduct): 96% and 96 ± 1%
[5]
  cytotoxicity (cell viability): not cytotoxic
